From patent publication US7205383B2, “Peptide ligands of leukocyte integrins” (Karyon-CTT Ltd., priority 2001, dated 2007)
Ends that are not written are not given here.

Key:
αMβ2 integrin = target: T1, αMβ2 integrin (Homo sapiens, UniProt P11215); assay: Integrin binding assay, immunocaptured integrin (MEM170 or OKM1); conditions: for binding of GST protein to immunocaptured αMβ2 integrin: 10 μg/ml, 1 mM MnCl2, integrin captured with MEM170 or OKM1, anti-GST detection
T1 construct: integrin from a blood cell lysate was immunocaptured on microtiter wells; from tissue; host or cells: blood buffy coat lysate in octylglucoside
Method: Purified LLG-C4-GST or GST control (2 μg/well) was allowed to bind for 60 min in the absence or presence of EDTA. After washing, the bound GST protein was determined by using anti-GST antibodies. […] The experiment was repeated three times with similar results.
(§1) Integrin was immunocaptured on microtiter wells that were coated with the αM subunit antibodies OKM1 or MEM170, the αx subunit antibody TS2/4 or non-specific IgG (Dako, Carpinteria, Calif.). The antibodies were coated at a concentration of 10 μg/ml in TBS overnight at 4° C. After saturation of the wells with 5% BSA, a 200 μl aliquot of the buffy coat lysate in 1% octylglucoside/1 mM MnCl2/TBS was allowed to incubate for 2 h at 4° C. The wells were then washed five times with the octylglucoside-containing buffer. LLG-C4-GST or control GST was incubated at a concentration of 10 μg/ml in 25 mM octylglucoside TBS/1 mM MnCl2 for an hour. Following washing of the wells, the bound GST was determined with anti-GST antibodies (Amersham Pharmacia), which were labeled with an Eu^3+-chelate according to the instructions of the manufacturer (Wallac, Turku, Finland). The Eu^3+-fluorescence was measured with a 1230 Arcus fluorometer (Wallac). For examination of the I-domain binding, we used the recombinant αM I-domain expressed as a GST fusion protein in E. coli as described (Ueda et al., 1994). […] The I-domain was coated on microtiter wells at a concentration of 20 μg/ml, and the binding of LLG-C4-GST and GST was studied.

αM subunit I-domain = target: T2, αM subunit I-domain (Homo sapiens, UniProt P11215); assay: I-domain binding assay; conditions: for inhibition of LLG-C4-GST binding to the I-domain: LLG-C4-GST 10 μg/ml, peptides 100 μM, EDTA 2.5 mM; for binding to isolated I-domain of the αM subunit: 0.01–100 μg/ml, 60 min
T2 construct: GST (cleaved yes); made in house; host or cells: E. coli
Method: In FIG. 1(B), LLG-C4-GST or GST was incubated for 60 min in microtiter wells coated with purified αM subunit I-domain. The concentrations of GST proteins were as indicated. After washing, the bound GST was determined with anti-GST antibodies. The results are means ±SD from triplicate wells. The results were similar in two other experiments.
After a 60 min incubation, the wells were washed and the binding was determined with anti-GST antibodies. The results are the means ±SD from triplicate wells.
as §1

[1] = tested on: THP-1 cells (β2 integrins); conditions: for competition of THP-1 cell adhesion on LLG-C4-GST substratum: soluble pentapeptides, CLLGC at concentrations of 1 mM or higher
Method: In FIG. 2(A), phorbol ester-activated THP-1 cells were allowed to bind for 60 min to microtiter wells coated with LLG-C4-GST, GST, or albumin. EDTA was included at a 2.5 mM concentration. The bound cells were determined by the assay measuring cellular phosphatase activity. The data are the means ±SD from triplicate wells.
In FIG. 2(B), THP-1 cells were mixed with each antibody against the β1, β2, β3, αL, αM, or αX integrin subunit as indicated at a concentration of […]. An aliquot of cells was then transferred to wells coated with LLG-C4-GST and incubated for 60 min at 37° C. Following washing the bound cells were determined by the phosphatase assay. The results are the mean % adhesion ±SD of 2–4 independent experiments each done in triplicate wells.
In FIG. 3(A), TBP-1 cells were mixed in suspension with the peptide containing either the C(1–8;3–9) or C(1–9;3–8) disulfide. The final concentrations of the peptides are indicated. Cells were then incubated for 60 min at 37° C. in microtiter wells coated with LLG-C4-GST. After washing the wells, the bound cells were quantitated by the phosphatase assay. The results are the mean ±SD from triplicate wells.
In FIG. 3(B), THP-1 cell binding to LLG-C4-GST was examined in the presence of the C(1–8;3–9), CLLGC (SEQ ID NO: 4) or the CAAGC (SEQ ID NO: 5) peptide. The synthetic peptides were used at the concentrations indicated. Following a 60 min incubation the wells were washed and the bound cells were determined by the phosphatase assay.
(§2) Fibrinogen, fibronectin, von Wrlnebrand factor, type IV collagen, GST fusion proteins, Fc fusion proteins or synthetic peptides were coated on microtiter wells at a concentration of 2 μg in 50 μl TBS unless otherwise indicated. A recombinant von Willebrand factor and a capturing antibody to it kindly provided by Drs. J. J. Sixma and Ph. G. de Groot (University Medical Center Utrecht, the Netherlands) were also used. To prepare polymerized peptides, glutaraldehyde was added at a final concentration of 0.25%. The wells were saturated with 5% BSA and then washed five times with PBS. Prior to adhesion assays, cells were treated with 50 nM 40-Phorbol 12,13-dibutyrate or with 200 μM P1 peptide (Kotovuori et al., 1999) in serum-free medium for 30 min at room temperature to activate the integrins. Alternatively, cells were stimulated for 60 min at 37° C. with the phorbol ester (50 nM) and the C(1–8;3–9) and RGD-4C peptides each at a 2.5 μM concentration, after which the peptides were removed by washing with PBS/2.5 mM EDTA. Cells were incubated in the microtiter wells (100 000 cells per well) for 60 min at 37° C. in the absence or presence of competing peptides, antibodies or EDTA. Unbound cells were removed by gently washing with PBS and pressing the plate against paper towels. The bound cells were determined by an assay measuring cellular phosphatase activity. Briefly, 100 μl of 50 mM sodium acetate buffer, pH 5.0, containing 1% Triton X-100 and 6 mg/ml p-nitrophenyl phosphate was added per well and incubated for 1 h at 37° C. The reaction was stopped with 50 μl of 1 M NaOH. The absorbance at 405 nm was read on a microplate reader. Alternatively, the attached cells were stained with Crystal Violet essentially as described (Mould et al., 1995).

[2] = tested on: αXβ2 integrin-transfected L cells; assay: Adhesion of αXβ2 integrin-transfected L cells to LLG-C4-GST; type: cell-based, mouse
Method: as §2, with “Unbound cells were removed by gently washing with PBS and pressing the plate against paper towels.” left out, “Briefly, 100 μl of 50 mM sodium acetate buffer, pH 5.0, containing 1% Triton X-100 and 6 mg/ml p-nitrophenyl phosphate was added per well and incubated for 1 h at 37° C. The reaction was stopped with 50 μl of 1 M NaOH.” left out, “Alternatively, the attached cells were stained with Crystal Violet essentially as described (Mould et al., 1995).” left out

[3] = tested on: THP-1 cells on von Willebrand factor; type: cell-based; conditions: 500 μM; data not shown
Method: In FIG. 5(A), THP-1 cell binding to von Wirebrand factor was examined in the presence of antibodies against the β2 (7E4), αvβ3 (LM609) or αIIbβ3 (P2) integrins. Following a 60 min incubation in von Willebrand factor-coated wells, the bound cells were determined. The data are the mean ±SD of triplicate wells. The experiment was repeated three times.
In FIG. 5(B), TRP-1 cells were allowed to bind to microtiter wells coated with von Willebrand factor, type IV collagen, or fibronectin. The C(1–8;3–9) peptide was included as a competitor in the concentrations described. The bound cells were determined by the phosphatase assay. The data are the mean ±SD of triplicate wells and were similar in four other experiments.
as §2, with “Unbound cells were removed by gently washing with PBS and pressing the plate against paper towels.” left out, “Briefly, 100 μl of 50 mM sodium acetate buffer, pH 5.0, containing 1% Triton X-100 and 6 mg/ml p-nitrophenyl phosphate was added per well and incubated for 1 h at 37° C. The reaction was stopped with 50 μl of 1 M NaOH.” left out, “Alternatively, the attached cells were stained with Crystal Violet essentially as described (Mould et al., 1995).” left out

αMβ2 integrin (Mac-1) = target: T3, αMβ2 integrin (Mac-1) (Homo sapiens, UniProt P11215); assay: Phage display biopanning on purified integrin; type: binding; conditions: phage bound to αMβ2 integrin, CX7C and CX9C libraries, randomly selected clones
T3 construct: from tissue; host or cells: blood buffy coats (leukocytes)
Method: The αMβ2 integrin was purified by antibody affinity chromatography from buffy coats obtained from Finnish Red Cross Blood Transfusion Service as described previously (Li et al., 1995). Integrin diluted in Tris-buffered saline (TBS)/1 mM MnCl2 was coated onto microtiter wells overnight at 4° C. using one μg per well in the first biopanning and 100, 10 and 1 ng in subsequent pannings. The wells were blocked with 5% BSA in TBS for 1 h at 22° C. and then washed five times with TBS. Biopanning was performed using CX7C and CX9C phage peptide libraries essentially as described (Koivunen et al., 1994). The construction of libraries was modified so that the single-stranded DNA encoding degenerate sequences was converted into a double-stranded form using 5 cycles of PCR with only the reverse primer and then 11 cycles with both the reverse and forward primer. A total of 6 μg of the double-stranded oligonucleotide was purified using QIAGEN PCR purification kit and ligated with 42 μg of the Fuse5 phage vector. The number of recombinants in the libraries was more than 10^9. Phage binding, elution and subsequent amplification in E. coli were repeated five times, and after each panning bacterial colonies were picked up and stored in a 10 μl volume of TBS in microtiter wells at −20° C. For direct colony sequencing, one μl aliquots of the thawed samples were subjected to PCR with 10 pmol each of the forward primer 5′ […] 3′ (SEQ ID NO: 9) and the reverse primer 5′ […] 3′ (SEQ ID NO: 10). The PCR conditions were 92° C. for 30 s, 60° C. for 30 s, and 72° C. for 60 s, and the cycle number was 35. One μl aliquot of the PCR reaction was taken for sequencing using 15 pmol of either one of the primers and analyzed on an ABI 310 apparatus (PE Applied Biosystems, Foster City, Calif.).
After the fifh round of selection, the CX7C library gave a 600-fold enrichment and CX9C a 1000-fold enrichment of phage bound to the integrin in comparison to background. […] Four of them contained the LLG tripeptide motif. The two sequences most strongly enriched were CPCFLLGCC (SEQ ID NO: 3) (LLG-C4) and […] (SEQ ID NO: 11), each observed 15 times in the randomly selected clones, and these were the only clones remaining after searching for high affinity binders by using low integrin coating concentrations.

[4] = tested on: L929, K562, SKOV-3, KS6717 and Eahy96 cells; assay: Adhesion of non-leukocytic cell lines to immobilized peptide or fusion protein; type: cell-based; conditions: cells pretreated with phorbol ester or not; data not shown
Method: as §2, with “Unbound cells were removed by gently washing with PBS and pressing the plate against paper towels.” left out, “Briefly, 100 μl of 50 mM sodium acetate buffer, pH 5.0, containing 1% Triton X-100 and 6 mg/ml p-nitrophenyl phosphate was added per well and incubated for 1 h at 37° C. The reaction was stopped with 50 μl of 1 M NaOH.” left out, “Alternatively, the attached cells were stained with Crystal Violet essentially as described (Mould et al., 1995).” left out

THP-1 cells = assay: Transwell cell migration assay, LLG-C4-GST-coated filters; type: cell-based; conditions: 10% serum, 18 h
Method: The in vitro migration of THP-1 cells was studied in closely physiological conditions containing 10% serum to not interfere with adhesive properties of cells. Both the upper and lower surfaces of 8 μm pore size Transwell filters were coated with fibrinogen, LLG-C4-GST, or GST at a concentration of 40 μg/ml overnight at 4° C. Free binding sites were blocked by incubation with 5% BSA/TBS. THP-1 cells (5×10^4 in 100 μl) were plated on the upper compartment in 10% FCS-containing medium. The C(1–8;3–9) or C(1–9;3–8) peptide were included at a concentration of 200 μM. The lower compartment was filled with 750 μl of 10% FCS-containing medium. Following a culture for 18 h at 37° C. the filters were immersed in methanol for 15 min, in water for 10 s, and in 0.1% toluidine blue for 5 min. The filters were then washed 3–5 times with water until cell staining was clear. Cells were removed from the upper surface of the filter with a cotton swap, and cells migrated on the lower surface were counted microscopically. Student's t-test was used for statistical analysis.

O=C(O)CN(CCN(CC(=O)O)CC(=O)O)CC(=O)O [EDTA, reference compound]
inhibition of LLG-C4-GST binding to immunocaptured αMβ2 integrin (αMβ2 integrin; EDTA present): inhibited the binding of LLG-C4-GST to the integrin | inhibition of LLG-C4-GST binding to the I-domain (αM subunit I-domain): blocked the binding | effect of EDTA on THP-1 binding on LLG-C4-GST ([1]; EDTA 2.5 mM): completely abolished the binding | inhibition of binding of αXβ2-transfected L cells to LLG-C4-GST ([2]; competitor): inhibited

CAAGC (Synthetic peptide seen in Fig. 3B) [reference compound]
competition of THP-1 cell adhesion on LLG-C4-GST substratum [1]: weak competitor of cell adhesion | inhibition of THP-1 binding to von Willebrand factor at 500 μM [3]: not

CLLGC (Synthetic peptide seen in Fig. 3B)
competition of THP-1 cell adhesion on LLG-C4-GST substratum [1]: readily inhibited cell adhesion | inhibition of THP-1 binding to von Willebrand factor at 500 μM [3]: inhibited

CPEDLYFFC (Phage sequence bound to the alphaMbeta2 integrin (Mac-1))
number of isolated nucleotide sequences encoding each peptide (αMβ2 integrin (Mac-1)): (3)

CPPDLFWYC (Phage sequence bound to the alphaMbeta2 integrin (Mac-1))
number of isolated nucleotide sequences encoding each peptide (αMβ2 integrin (Mac-1)): (4)

CWHKDLLGC (Phage sequence bound to the alphaMbeta2 integrin (Mac-1))
number of isolated nucleotide sequences encoding each peptide (αMβ2 integrin (Mac-1)): (4)

CWKLLGSEEEC (Stronly enriched sequence)
number of isolated nucleotide sequences encoding each peptide (αMβ2 integrin (Mac-1)): (15) | number of isolated nucleotide sequences encoding each peptide (αMβ2 integrin (Mac-1); listed as CWKLGSEEEC): 15

GST: control GST protein
binding of GST protein to immunocaptured αMβ2 integrin (αMβ2 integrin): not GST alone | binding to isolated I-domain of the αM subunit (αM subunit I-domain): did not bind

LLG-C4 (1): air-oxidised synthetic biscyclic LLG-C4 preparation, highly active (CPCFLLGCC; disulfide (positions not given here))
inhibition of LLG-C4-GST binding to the I-domain (αM subunit I-domain): blocked the ability of the I-domain to bind the LLG-C4-GST

LLG-C4 (2): synthetic LLG-C4 preparation, inactive apparently due to disadvantageous disulfide bonding (CPCFLLGCC; disulfide (positions not given here); not fully specified)
inhibition of LLG-C4-GST binding to the I-domain (αM subunit I-domain): did not inhibit LLG-C4-GST binding to the I-domain

LLG-C4-GST: LLG-C4 nonapeptide expressed as GST fusion protein in E. coli (CPCFLLGCC-{GST}; cysteine pairing not given here)
binding of GST protein to immunocaptured αMβ2 integrin (αMβ2 integrin): bound to the αMβ2 integrin in a divalent cation-sensitive manner | binding to isolated I-domain of the αM subunit (αM subunit I-domain): concentration-dependent binding | binding of phorbol ester-activated THP-1 cells to coated protein ([1]; protein coated on microtiter wells, 60 min): efficiently bound | binding of non-leukocytic cell lines not expressing β2 integrins [4]: showed no binding | difference in binding of αXβ2-transfected L cells to LLG-C4-GST vs. GST ([2]; p=0.016): statistically significant | cell migration on LLG-C4-GST compared with other coatings (THP-1 cells): more efficient than on fibronectin or fibrinogen coatings | fold more cells migrated on LLG-C4-GST substratum than on control GST substratum (THP-1 cells; filter coated at 40 μg/ml): Approximately 10 fold
